Laboratory results: patent publication US5948814A, “Genistein for the treatment of cystic fibrosis” (priority 1998, dated 1999)
“And” between values parts separate entries of the source, which are not always exact repeats. Equal values may be shown once. “Also recorded” adds a separate entry of the source.

How the values were obtained:
[1] = test system: wt-CFTR; experiment: Patch clamp, cell-attached patches, Calu-3 cells; format: cell-based, human; conditions: 50 μM genistein on forskolin, n=15
From the text: (§1) Downward deflections represent channel opening.

[2] = biological target: T1, wt-CFTR (Homo sapiens, UniProt P13569); format: cell-based; parameters: expressed in transfected cells; conditions: 50 μM genistein on forskolin; HEK293; n=10
From the text: Transient expression of wt-CFTR in HEK293 cells: The pRBG4 vector containing wt-CFTR cDNA is a generous gift from Drs. Kevin Gunderson and Ron Kopito of Stanford University. HEK293 cells were transfected with the calcium phosphate method as described previously [Gunderson et al., 1994].
as §1

[3] = biological target: T1, wt-CFTR; parameters: expressed in transfected cells; host or cells: pooled: Calu-3 (endogenous, n=2); conditions: cited from earlier work
[4] = test system: cAMP levels or PKA activity; conditions: cited from earlier work
[5] = biological target: T2, ΔF508-CFTR (Homo sapiens, UniProt P13569, DEL508-508); experiment: Single-channel kinetics (dwell-time analysis), cell-attached patches; format: cell-based; parameters: expressed in transfected cells; host or cells: NIH/3T3 cells, stably transfected (NIH/3T3-ΔF508, gift of Dr. Richard Mulligan)
Description: (§2) FIGS. 3A and B show recordings of the potentiation of wild-type (wt) and ΔF508-CFTR channel activity by genistein. Channels in cell-attached patches from NIH/3T3-CFTR (FIG. 3A) and NIH/3T3-ΔF508cells (FIG. 3B), were stimulated as indicated with 10 μM forskolin and 50μ genestein.
(§3) Electrophysiology: CFTR channel currents were recorded at room temperature (~22° C.) with a patch-clamp amplifier (EPC-9, Heka Electronic), filtered at 100 Hz with a built-in three-pole Bessel filter, and stored on videotapes. Data were subsequently refiltered at 25 Hz with an eight-pole Bessel filter (Frequency Device, Havervill, Mass.) and captured onto a hard disk at a sampling rate of 50 Hz. […] Patch-clamp electrodes were made from Corning 7052 glass capillaries (Warner Instrument, Hammed, Conn.). The pipette resistance was usually 3-5 M.OMEGA., and the seal resistance was >20 G.OMEGA.. The pipette solution contained (in mM) 140 N-methyl-D-glucamine chloride (NMDG-C1), 2 MgCl2, 5Ca Cl2, and 10 HEPES (pH 7.4 with NMDG). The superfusion solution contained (in mM) 150 […], 2 MgCl2, 1 EGTA, 5 glucose, and 5 HEPES (pH 7.4 with NaOH). In excised inside-out patch experiments, the bath solution contained (in mM) 130 MNDG-Cl, 10 EGTA, 10 HEPES, 20 tetraethylammonium chloride, 8 Tris, and 2 MgCl2 (pH 7.4 with NMDG). Pipette potential was held at 50 mV relative to the bath. Downward deflections represent channel opening.
Statistics: Mean currents and variance were estimated with Igor (Wavemetrics, Lake Oswego, Oreg.). Parameters for mean current-variance relationships and dose-response curves were obtained from least-square fitting with Sigmaplot (Jandel, San Rafael, Calif.). Po was calculated from patches containing a single channel by dividing the […]. Dwell-time analysis was described previously [Baukrowitz et al., 1994]. Calculated values are presented as means±SE. Comparisons among data were made using the Student's t-test with P<0.05 considered significant.
To determine how genistein increases Po, the effects of genistein on single-channel kinetics were examined in cell-attached patches using dwell-time analysis. […] Both traces were recorded in the presence of 10 μM forskolin; 50 μM genistein was added prior to the start of the lower trace. […] The mean open times for ΔF508-CFTR were also determined. However, since cell-attached patches containing a single ΔF508-CFTR channel were not observed, a direct assessment of the closed times for ΔF508-CFTR cannot be made. Dwell-time analysis of pooled open times were performed on 14 patches where individual openings of ΔF508-CFTR could be clearly identified.
Table 1. Values are means±SE.

[6] = biological target: T2, ΔF508-CFTR; experiment: Other protein tyrosine kinase inhibitors, activation of ΔF508-CFTR; format: cell-based; parameters: expressed in transfected cells; host or cells: NIH/3T3 cells, stably transfected (NIH/3T3-ΔF508, gift of Dr. Richard Mulligan)
[7] = biological target: T2, ΔF508-CFTR; experiment: Patch clamp, cell-attached patches, macroscopic current, NIH/3T3-ΔF508 cells
Description: as §2
Cell culture: NIH/3T3-CFTR, NIH/3T3-ΔF508, and NIH/3T3 mock cells (generous gifts from Dr. Richard Mulligan of Children's Hospital and Medical Center, Harvard Medical School) were grown as described [Bradbury et al., 1992] at 37° C. and 5% CO2 in Dulbecco's modified Eagle's medium-H21 supplemented with 10% new-born calf serum, 4 mM glutamine, 25 mM glucose, 100 μg/ml penicillin, 100 μg/ml streptomycin, and 50 μg/ml gentamicin. Cells were maintained in T75 flasks, passaged at 90-95% confluency, and split one to four. For measurements of I^- efflux and in vivo phosphorylation, cells were seeded onto 35-mm dishes at […]. For patch-clamp experiments, cells were grown on coverglass chips in 35-mm culture dishes. Media were replaced 24 hours after plating and thereafter every 48 hours. In all cases, media were changed on the day before I^- efflux studies, NIH/3T3-ΔF508 cells were transferred to 27° C. three days before use, and 1 day prior to study, media were supplemented with 5 mM butyrate. For patch-clamp studies, where a constant level of functional ΔF508-CFTR was not essential, NIH/3T3-ΔF508 cells were cultured at 27° C. for 2-6 days before use. Calu-3 cells were grown and maintained as described by Hunter [1995].
as §3, with “In excised inside-out patch experiments, the bath solution contained (in mM) 130 MNDG-Cl, 10 EGTA, 10 HEPES, 20 tetraethylammonium chloride, 8 Tris, and 2 MgCl2 (pH 7.4 with NMDG). Pipette potential was held at 50 mV relative to the bath. Downward deflections represent channel opening.” left out
Statistics: Mean currents and variance were estimated with Igor (Wavemetrics, Lake Oswego, Oreg.). […] Po was calculated from patches containing a single channel by dividing the open channel current amplitude with the mean-current amplitude. […] Calculated values are presented as means±SE. […]

[8] = test system: histidine kinase; conditions: cited from earlier work
[9] = Table 1, 10 μM forskolin + 50 μM genistein

T2 sequence (P13569 with tags, fused parts or gaps DEL508-508): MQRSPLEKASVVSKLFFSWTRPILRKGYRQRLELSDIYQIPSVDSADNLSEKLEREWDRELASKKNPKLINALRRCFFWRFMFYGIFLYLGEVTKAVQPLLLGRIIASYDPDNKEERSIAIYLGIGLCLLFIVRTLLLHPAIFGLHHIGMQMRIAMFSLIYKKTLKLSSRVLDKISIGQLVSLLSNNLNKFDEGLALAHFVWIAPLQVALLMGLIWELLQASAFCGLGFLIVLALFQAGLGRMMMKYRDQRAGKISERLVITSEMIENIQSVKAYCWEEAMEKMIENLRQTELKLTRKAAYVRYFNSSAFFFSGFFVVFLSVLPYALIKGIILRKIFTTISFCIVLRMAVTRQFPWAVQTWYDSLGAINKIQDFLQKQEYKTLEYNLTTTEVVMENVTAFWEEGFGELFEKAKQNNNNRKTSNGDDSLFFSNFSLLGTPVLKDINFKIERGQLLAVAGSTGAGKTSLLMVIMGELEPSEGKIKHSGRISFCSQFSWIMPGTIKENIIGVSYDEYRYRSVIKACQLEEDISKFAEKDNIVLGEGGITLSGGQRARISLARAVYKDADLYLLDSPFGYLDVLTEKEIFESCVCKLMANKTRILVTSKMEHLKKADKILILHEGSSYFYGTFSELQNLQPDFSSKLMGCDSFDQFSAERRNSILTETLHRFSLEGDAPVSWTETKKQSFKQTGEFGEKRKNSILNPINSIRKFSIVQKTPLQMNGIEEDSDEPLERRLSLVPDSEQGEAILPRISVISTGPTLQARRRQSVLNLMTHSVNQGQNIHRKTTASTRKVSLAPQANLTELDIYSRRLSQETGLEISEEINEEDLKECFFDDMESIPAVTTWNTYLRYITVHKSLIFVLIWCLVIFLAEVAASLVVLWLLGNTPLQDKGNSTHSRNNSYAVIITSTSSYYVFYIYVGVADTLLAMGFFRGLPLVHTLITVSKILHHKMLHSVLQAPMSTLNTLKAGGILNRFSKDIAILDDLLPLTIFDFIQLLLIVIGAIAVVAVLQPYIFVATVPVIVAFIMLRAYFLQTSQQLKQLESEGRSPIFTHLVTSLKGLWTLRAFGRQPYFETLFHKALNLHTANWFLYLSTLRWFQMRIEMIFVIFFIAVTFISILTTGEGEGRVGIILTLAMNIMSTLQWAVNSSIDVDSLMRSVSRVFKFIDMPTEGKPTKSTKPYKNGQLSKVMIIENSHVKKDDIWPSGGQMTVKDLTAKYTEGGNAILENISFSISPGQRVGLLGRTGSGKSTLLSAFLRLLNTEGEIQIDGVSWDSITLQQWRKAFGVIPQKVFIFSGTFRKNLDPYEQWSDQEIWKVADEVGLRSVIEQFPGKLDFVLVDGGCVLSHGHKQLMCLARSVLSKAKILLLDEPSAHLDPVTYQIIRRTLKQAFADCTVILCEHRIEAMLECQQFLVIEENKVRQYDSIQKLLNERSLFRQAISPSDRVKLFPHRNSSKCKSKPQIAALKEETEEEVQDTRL
T1 sequence (P13569 whole entry): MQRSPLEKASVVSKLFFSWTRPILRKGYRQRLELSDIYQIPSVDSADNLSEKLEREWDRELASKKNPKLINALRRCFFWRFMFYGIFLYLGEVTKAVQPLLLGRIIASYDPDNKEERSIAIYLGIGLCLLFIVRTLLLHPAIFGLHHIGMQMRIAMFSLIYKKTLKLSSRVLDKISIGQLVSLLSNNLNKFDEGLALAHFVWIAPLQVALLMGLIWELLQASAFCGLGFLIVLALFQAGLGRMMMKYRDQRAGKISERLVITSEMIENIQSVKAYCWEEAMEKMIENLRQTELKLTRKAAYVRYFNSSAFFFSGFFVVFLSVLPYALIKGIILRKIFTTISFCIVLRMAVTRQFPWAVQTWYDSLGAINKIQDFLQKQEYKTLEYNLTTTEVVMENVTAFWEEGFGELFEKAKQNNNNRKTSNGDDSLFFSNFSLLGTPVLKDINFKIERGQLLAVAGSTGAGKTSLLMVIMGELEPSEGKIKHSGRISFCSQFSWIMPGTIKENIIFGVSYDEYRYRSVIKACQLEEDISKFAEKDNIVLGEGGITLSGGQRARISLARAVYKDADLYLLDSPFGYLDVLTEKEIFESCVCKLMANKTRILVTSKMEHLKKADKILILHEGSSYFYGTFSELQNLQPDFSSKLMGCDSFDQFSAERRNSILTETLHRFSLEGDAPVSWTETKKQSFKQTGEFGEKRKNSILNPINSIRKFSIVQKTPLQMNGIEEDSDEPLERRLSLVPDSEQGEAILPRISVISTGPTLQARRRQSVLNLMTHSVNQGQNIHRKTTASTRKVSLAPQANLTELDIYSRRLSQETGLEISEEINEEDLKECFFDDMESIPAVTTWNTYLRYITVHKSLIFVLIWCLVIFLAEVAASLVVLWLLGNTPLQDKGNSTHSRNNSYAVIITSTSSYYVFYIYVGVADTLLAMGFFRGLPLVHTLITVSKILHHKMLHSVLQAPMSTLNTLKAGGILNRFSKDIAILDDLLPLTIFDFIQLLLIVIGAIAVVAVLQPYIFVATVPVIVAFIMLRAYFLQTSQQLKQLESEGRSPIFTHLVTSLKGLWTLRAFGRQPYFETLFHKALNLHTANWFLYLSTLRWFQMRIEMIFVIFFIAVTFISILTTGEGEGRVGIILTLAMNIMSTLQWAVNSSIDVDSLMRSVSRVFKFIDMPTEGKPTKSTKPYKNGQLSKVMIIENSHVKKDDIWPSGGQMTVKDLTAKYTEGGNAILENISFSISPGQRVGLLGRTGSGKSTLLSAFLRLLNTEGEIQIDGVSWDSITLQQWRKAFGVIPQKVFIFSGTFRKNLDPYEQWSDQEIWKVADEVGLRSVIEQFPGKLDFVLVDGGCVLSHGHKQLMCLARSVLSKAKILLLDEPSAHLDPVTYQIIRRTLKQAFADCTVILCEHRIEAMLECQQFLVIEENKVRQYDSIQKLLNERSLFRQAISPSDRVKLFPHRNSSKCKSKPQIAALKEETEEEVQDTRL

O=c1c(-c2ccc(O)cc2)coc2cc(O)cc(O)c12 [Genistein, 4',5,7-trihydroxyisoflavone]
average increase in mean-current amplitude by genistein [1]: 3.1±0.3 fold
average increase in mean-current amplitude by genistein [2]: 3.1±0.7 fold
basal wt-CFTR activity [3]: stimulates basal wt-CFTR activity
channel activation in cells lacking basal CFTR activity [3]: does not appear to activate the channel in cells that lack a basal CFTR activity
deactivation of wt-CFTR currents after removal of cAMP-dependent stimulation [3]: prevents deactivation of wt-CFTR channel currents
potentiation of cAMP-dependent wt-CFTR activity [3]: potentiates cAMP-dependent wt-CFTR channel activity
steady-state phosphorylation of wt-CFTR [3]: increases the steady-state phosphorylation level of wt-CFTR
activation of wt-CFTR chloride channels ([3]; variety of cells): activates wt-CFTR chloride channels
effect on cAMP levels or PKA activity [4]: does not increase cAMP levels or PKA activity; also recorded: does not alter cellular cAMP levels or PKA activity
increase of TO2 of forskolin-activated ΔF508-CFTR current by genistein ([5]; 10 μM forskolin): two-to threefold
TO1 (mean open time) [5, 9]: 0.31 ± 0.17
TO2 (long mean open time) [5, 9]: 2.63 ± 0.37
ΔF508-CFTR stimulation activity among protein tyrosine kinase inhibitors [6]: is the only protein tyrosine kinase inhibitor that has such an effect
patches showing channel activity ([7]; 10 μM forskolin plus 50 μM genistein, cells grown at 37° C.): Approximately 10%
average increase in mean-current amplitude by genistein ([7]; 50 μM genistein on 10 μM forskolin, cells cultured at 27° C., 23 patches, 50 µM): 18.6±2.2 fold and 19 fold
patches responding ([7]; forskolin plus genistein, cells grown at 27° C., 44 of 82): 54%
inhibition of histidine kinase [8]: inhibits

C=C[C@@]1(C)CC(=O)[C@]2(O)[C@@]3(C)[C@@H](O)CCC(C)(C)[C@@H]3[C@H](O)[C@H](OC(C)=O)[C@@]2(C)O1 [forskolin]
average long closing time ([5]; 10 μM forskolin alone, at least 5 channels in patch): 6.1 s
TO2 (so in the source), estimated ([5]; 10 μM forskolin, from observed closed time and minimal number of channels): about 30 seconds
TO1 (mean open time) ([5]; Table 1, 10 μM forskolin): 0.30 ± 0.11
TO2 (long mean open time) ([5]; Table 1, 10 μM forskolin): 0.92 ± 0.12
TC2 (long mean closed time), estimation ([5]; Table 1, 10 μM forskolin, estimated from observed closed time and minimum number of channels): > 30
